Assay results published in ChEMBL document CHEMBL1134259, “Antitumor agents. Part 204: synthesis and biological evaluation of substituted 2-aryl quinazolinones” (Bioorg Med Chem Lett, 2001).
In brackets after ≈: the same amount, converted by molar mass. Activity calls are given as the source filed them. The calls are words filed in the database; no cut-off is given here.

Legend:
[1] = tested on: KB; experiment: In vitro effective concentration required to reduce the number of Human epidermoid carcinoma cells (KB) of nasopharynx after 3-day incubation; format: functional; settings: 72 h, read-out: ED50 (the source's name)
[2] = tested on: SK-MEL-2; experiment: In vitro effective concentration required to reduce the number of human melanoma cancer (SKMEL-2) after 3-day incubation; format: functional; settings: SK-MEL-2, 72 h, read-out: ED50 (the source's name)
[3] = tested on: H9; experiment: Concentration required to inhibit uninfected H9 cell growth when tested for anti-HIV activity; format: functional, cell-based; settings: Homo sapiens
[4] = tested on: H9; experiment: Concentration required to inhibit viral replication in acutely infected H9 lymphocytes when tested for anti-HIV activity; format: functional, cell-based; settings: Homo sapiens
[5] = tested on: 1A9; experiment: In vitro effective concentration required to reduce the number of human ovarian cancer (1A9) after 3-day incubation; format: functional; settings: for EC50: 1A9, 72 h, read-out: ED50 (the source's name)
[6] = target: Tubulin; experiment: Inhibitory concentration required against tubulin polymerization in the antimicrotubule activity test; format: functional
[7] = tested on: A549; experiment: In vitro effective concentration required to reduce the number of human lung carcinoma (A-549) after 3-day incubation; format: functional; settings: A549, 72 h, read-out: ED50 (the source's name)
[8] = tested on: MCF7; experiment: In vitro effective concentration required to reduce the number of human breast cancer (MCF-7) after 3-day incubation; format: functional; settings: for EC50: 72 h, read-out: ED50 (the source's name)
[9] = tested on: KB; experiment: In vitro effective concentration required to reduce the number of P-glycoprotein-expressing human epidermoid carcinoma cells (KB-VIN) of nasopharynx after 3-day incubation; format: functional; settings: 72 h, read-out: ED50 (the source's name)
[10] = tested on: HCT-8; experiment: In vitro effective concentration required to reduce the number of human ileocecal carcinoma (HCT-8) after 3-day incubation; format: functional; settings: for EC50: HCT-8, 72 h, read-out: ED50 (the source's name)
[11] = Therapeutic index (IC50/EC50) was determined.; settings: read-out: Therapeutic index
[12] = tested on: Tumor cell line; experiment: Tested for inhibitory activity against growth of about half of NCI's drug screen tumor cell lines at subnanomolar concentrations; format: functional; settings: read-out: Log TGI (converted)
[13] = Therapeutic index (IC50/EC50) was determined; Did not dissolve
[14] = tested on: A549; experiment: In vitro effective concentration required to reduce the number of human lung carcinoma cells (A-549) after 3-day incubation; format: functional; settings: A549, 72 h, read-out: ED50 (the source's name)
[15] = tested on: MCF7; experiment: In vitro effective concentration required to reduce the number of human breast cancer cells (MCF-7) after 3-day incubation; format: functional; settings: MCF7, 72 h, read-out: ED50 (the source's name)
[16] = tested on: SK-MEL-2; experiment: In vitro effective concentration required to reduce the number of human melanoma cancer cells (SKMEL-2) after 3-day incubation; format: functional; settings: SK-MEL-2, 72 h, read-out: ED50 (the source's name)
[17] = tested on: 1A9; experiment: In vitro effective concentration required to reduce the number of human ovarian cancer cells (1A9) after 3-day incubation; format: functional; settings: 1A9, 72 h, read-out: ED50 (the source's name)
[18] = tested on: HCT-8; experiment: In vitro effective concentration required to reduce the number of human ileocecal carcinoma cells(HCT-8) after 3-day incubation; format: functional; settings: HCT-8, 72 h, read-out: ED50 (the source's name)

SMILES	EC50 [1] [µg/mL]	EC50 [2] [µg/mL]	IC50 [3] [µM]	EC50 [4] [µM]	EC50 [5] [µg/mL]	IC50 [6] [µM]	EC50 [7] [µg/mL]	EC50 [8] [µg/mL]	EC50 [9] [µg/mL]	EC50 [10] [µg/mL]	selectivity ratio [11]	Therapeutic index [13]	further results
COc1cc2nc(-c3ccc4ccccc4c3)nc(O)c2cc1OC	7.3 (≈ 22 µM)	8.5 (≈ 25.6 µM)	100	7.59	7.8 (≈ 23.5 µM)	> 40	8 (≈ 24.1 µM)	6.6 (≈ 19.9 µM)	1.6 (≈ 4.81 µM)	> 10	13.2	–	–
COc1cccc(-c2cc(O)c3cc(N4CCCC4)ccc3n2)c1	–	–	–	–	–	–	–	–	–	–	–	–	TGI [12]: < 0.001 µM
COc1cccc(-c2nc(O)c3cc(OC)ccc3n2)c1	1.98 (≈ 7.01 µM)	> 40	–	–	4.7 (≈ 16.6 µM)	4.9	28.1 (≈ 99.5 µM)	37.5 (≈ 133 µM)	–	> 40	–	–	–
Oc1nc(-c2ccc3ccccc3c2)nc2ccccc12	12.5 (≈ 45.9 µM)	13 (≈ 47.7 µM)	–	–	8 (≈ 29.4 µM)	> 40	14.4 (≈ 52.9 µM)	10.3 (≈ 37.8 µM)	6 (≈ 22 µM)	19.1 (≈ 70.1 µM)	–	Did not dissolve	–
Oc1nc(-c2ccc(F)cc2)nc2ccccc12	> 20	> 20	38.8	9.18	> 20	> 40	7.5 (≈ 31.2 µM)	> 20	6.5 (≈ 27.1 µM)	–	4.22	–	ED50 [10]: inactive
COc1cc2nc(-c3cccc(F)c3)nc(O)c2cc1OC	–	> 20	–	–	> 20	> 40	> 20	–	> 20	> 20	–	Did not dissolve	ED50 [8]: inactive
COc1cccc(-c2nc(O)c3cc(OC)c(OC)cc3n2)c1	> 20	–	–	–	17.5 (≈ 56 µM)	6.5	> 20	14.5 (≈ 46.4 µM)	19 (≈ 60.8 µM)	> 20	–	–	–
COc1cc2nc(-c3ccc(F)cc3)nc(O)c2cc1OC	> 20	> 20	–	–	16 (≈ 53.3 µM)	> 40	> 20	19.8 (≈ 65.9 µM)	> 20	> 20	–	Did not dissolve	–
Oc1nc(-c2ccccc2F)nc2ccccc12	> 20	–	–	–	–	> 40	–	–	17.5 (≈ 72.8 µM)	–	–	Did not dissolve	EC50 [14]: > 20 µg/mL; EC50 [15]: > 20 µg/mL; EC50 [16]: > 20 µg/mL; EC50 [17]: 17.1 µg/mL (≈ 71.2 µM); EC50 [18]: > 20 µg/mL
Oc1nc(-c2cccc(F)c2)nc2ccccc12	> 20	> 20	30.7	9.53	> 20	> 40	9.8 (≈ 40.8 µM)	> 20	8.5 (≈ 35.4 µM)	–	3.22	–	ED50 [10]: inactive
COc1cc2nc(-c3ccccc3F)nc(O)c2cc1OC	< 5	< 5	100	10.9	> 20	> 40	< 5	13.1 (≈ 43.6 µM)	< 5	17 (≈ 56.6 µM)	9.17	–	–
COc1cccc(-c2nc(O)c3ccccc3n2)c1	–	> 20	–	–	–	8.6	> 20	> 20	> 20	> 20	–	–	ED50 [5]: inactive
